Source: article PMC10380083, “Synthesis of Prostate-Specific Membrane Antigen-Targeted Bimodal Conjugates of Cytotoxic Agents and Antiandrogens and Their Comparative Assessment with Monoconjugates” (International Journal of Molecular Sciences, 2023)
Where two headings read alike, the source gives them in different places. *1 amine or outer side, *2 acyl side, *3 side chain or, on linkers, in order; H or OH if unused. Where a SMILES comes first, the peptide text is derived from it. [ ]: non-standard residue; d: D form. The star is where a group is joined. GluureaLys(ε-3-ClBenzyl) = O=C(O)CC[C@H](NC(=O)N[C@@H](CCCCN(Cc1cccc(Cl)c1)*)C(=O)O)C(=O)O; X4 = C[C@]12CC[C@H](OC(=O)CCC(=O)*)CC1=CC[C@@H]1[C@@H]2CC[C@]2(C)C(c3cccnc3)=CC[C@@H]12; Dolaproine = CO[C@@H]([C@@H]1CCCN1)[C@@H](C)C(=O)O; Dil = CC[C@H](C)[C@H](NC)[C@@H](CC(=O)O)OC; X2 = O=C(CCCc1cn(CCCN[*:1])nn1)[*:2]; PABC = O=C(OCc1ccc(N[*:1])cc1)[*:2]; X1 = C[C@@H](N*)[C@@H](O)c1ccccc1; Cit = NC(=O)NCCC[C@H](N)C(=O)O; Suc = O=C(CCC(=O)[*:2])[*:1]; NMeV = CN[C@H](C(=O)O)C(C)C; Ahx = NCCCCCC(=O)O

Experiments:
[1] = Body weight, general condition and mortality in the antitumor efficacy study; details: i.v. 132.3 nM/kg x3
Procedure: Animal body weight data are presented in Table S2 in the electronic supplementary materials.
To study the antitumor efficacy, conjugates were administered intravenously at a dose of 132.3 nM/kg to tumor-bearing mice three times at five-day intervals; administration was started 7−8 days after cell inoculation, and the tumor size was 70−90 mm^3. As a control substance, 0.9% sodium chloride solution was used. Experimental groups included five animals each. […] The mixture was dissolved in DMSO (5% of final solution) and diluted with hemodesum (30% low-molecular-weight polyvinylpyrrolidone (Mw = 8000 ± 200) saline infusion solution). The presence of tumors and their sizes, as well as the body weights of the mice, were recorded every five days during the observation of the animals. The antitumor effect was assessed by comparing the tumor volumes in the experimental and control groups as well as the amount of tumor growth inhibition (TGI, %). […]
(§1) 3.2.1. In vivo evaluation of antitumor efficacy […]
(§2) intravenously at a dose of 132.3 nM/kg to tumor-bearing mice three times at 5-day intervals, the administration was started 7-8 days after cell inoculation to animals, tumor size was 70-90 mm3.
(§3) A 0.9% sodium chloride solution was used as a control substance. The experimental groups […]
(§4) The presence of tumor masses and their size, as well as the body weight of the mice, were recorded every 5 days during observation. In accordance with humane principles, animals were euthanized by placing the mice in a CO2 inhalation chamber (ZOONLAB GmbH, Germany).
Conjugate Method of injection Dose Number of animals 22Rv1 PC-3 […]
3.4. In vivo Efficacy Evaluation
Days after tumor implantation / mass± error, g
Conjugate 7 day 12 day 17 day […]
injection) injection) injection)
Human prostate carcinoma 22Rv1
Human prostate adenocarcinoma PC-3
Table S3. Tumor growth dynamics of 22Rv1 and PC-3 in mice with intravenous triple injection of […]
ate Days after tumor implantation / V±m, mm3

[2] = system: 22Rv1 human prostate carcinoma xenograft; details: 22Rv1 xenograft; for tumor volume V±m: i.v. triple injection, single dose 132.3 nM/kg; for Tumor growth inhibition: i.v. 132.3 nM/kg three times
Procedure: (§5) We carried out in vivo studies of the efficacy of the obtained bimodal conjugates. […] Also, conjugate I (Figure 5) was used as a reference compound. An isotonic (0.9%) sodium chloride solution was used as a negative control. Studies were carried out in xenograft models of 22Rv1 human prostate carcinoma and PC-3 prostate adenocarcinoma in immunodeficient Balb/c nude mice (male).
(§6) Two cell lines were used: human prostate carcinoma 22Rv1 and prostate adenocarcinoma PC-3 (ATCC collection). Cells were cultured in 75 cm^2 vials (Costar, Washington, DC, USA) in RPMI-1640 medium (PanEco, Russia) with the addition of 2 mM L-glutamine (PanEco, Russia) and 10% fetal calf serum (HyClone, Logan, UT, USA) under standard conditions of cultivation (in a humidified atmosphere at 37 °C and 5% CO2). Cells of 6–10 passages were used to inoculate the animals. Cell suspension was prepared with a concentration of 5 × 10^6 cells in 0.05 mL of the 22Rv1 medium and in 0.1 mL of the PC-3 medium. 22Rv1 cells were inoculated into animals in Matrigel (BD Matrigel Basement Membrane Matrix, BD Biosciences, San Jose, CA, USA). Manipulations with Matrigel were performed on a refrigerated plate using precooled materials, tubes and instrumentation. For animal administration, 50 μL of the cell suspension (5 × 10^6 cells) was transferred to a chilled tube containing 50 μL of Matrigel; after mixing, the cellular material (final volume of 100 μL) was injected subcutaneously into the groin area of the animal. To obtain subcutaneous xenograft PC-3, a 5 × 10^6 suspension of tumor cells was inoculated subcutaneously into the inguinal cavity of male mice in a volume of 0.1 mL.
(§7) To study the antitumor efficacy, conjugates were administered intravenously at a dose of 132.3 nM/kg to tumor-bearing mice three times at five-day intervals; administration was started 7−8 days after cell inoculation, and the tumor size was 70−90 mm^3. As a control substance, 0.9% sodium chloride solution was used. Experimental groups included five animals each. […] The mixture was dissolved in DMSO (5% of final solution) and diluted with hemodesum (30% low-molecular-weight polyvinylpyrrolidone (Mw = 8000 ± 200) saline infusion solution). The presence of tumors and their sizes, as well as the body weights of the mice, were recorded every five days during the observation of the animals. The antitumor effect was assessed by comparing the tumor volumes in the experimental and control groups as well as the amount of tumor growth inhibition (TGI, %).
(§8) Tumor volume was calculated using Formula (1):V = d1 × d2 × d3 × 0.52(1) where d1, d2 and d3 are the three mutually perpendicular dimensions of the tumor. […]
as §1, §2, §3, §4

[3] = system: PC-3 prostate adenocarcinoma xenograft; details: PC-3 xenograft; for tumor volume V±m: i.v. triple injection, single dose 132.3 nM/kg; for Tumor growth inhibition: i.v. 132.3 nM/kg three times; for TGI, did not exceed: i.v. 132.3 nM/kg three times at five-day intervals, male Balb/c nude mice
Procedure: as §5, §6, §7, §8, §1, §2, §3, §4

[4] = 22Rv1 xenograft mice, 7 day after tumor implantation (1st injection)
[5] = 22Rv1 xenograft mice, 12 day after tumor implantation (2nd injection)
[6] = 22Rv1 xenograft mice, 17 day after tumor implantation (3rd injection)
[7] = 22Rv1 xenograft mice, 22 day after tumor implantation
[8] = 22Rv1 xenograft mice, 27 day after tumor implantation
[9] = 22Rv1 xenograft mice, 33 day after tumor implantation
[10] = 22Rv1 xenograft mice, 37 day after tumor implantation
[11] = PC-3 xenograft mice, 7 day after tumor implantation (1st injection)
[12] = PC-3 xenograft mice, 12 day after tumor implantation (2nd injection)
[13] = PC-3 xenograft mice, 17 day after tumor implantation (3rd injection)
[14] = PC-3 xenograft mice, 22 day after tumor implantation
[15] = PC-3 xenograft mice, 27 day after tumor implantation
[16] = PC-3 xenograft mice, 33 day after tumor implantation
[17] = PC-3 xenograft mice, 37 day after tumor implantation
[18] = 7 day after tumor implantation (1st injection)
[19] = 12 day after tumor implantation (2nd injection)
[20] = 17 day after tumor implantation (3rd injection)
[21] = 22 day after tumor implantation
[22] = 33 day after tumor implantation
[23] = 37 day after tumor implantation
[24] = days after the start of treatment: 1
[25] = days after the start of treatment: 5
[26] = days after the start of treatment: 10
[27] = days after the start of treatment: 16
[28] = days after the start of treatment: 20

Compound | body weight, mass ± error [1, 4] [g] | body weight, mass ± error [1, 5] [g] | body weight, mass ± error [1, 6] [g] | body weight, mass ± error [1, 7] [g] | body weight, mass ± error [1, 8] [g] | body weight, mass ± error [1, 9] [g] | body weight, mass ± error [1, 10] [g] | body weight, mass ± error [1, 11] [g] | body weight, mass ± error [1, 12] [g] | body weight, mass ± error [1, 13] [g] | body weight, mass ± error [1, 14] [g] | body weight, mass ± error [1, 15] [g] | body weight, mass ± error [1, 16] [g] | body weight, mass ± error [1, 17] [g] | tumor volume V±m [2, 18] [mm3] | tumor volume V±m [2, 19] [mm3] | tumor volume V±m [2, 20] [mm3] | tumor volume V±m [2, 21] [mm3] | tumor volume V±m [2, 22] [mm3] | tumor volume V±m [2, 23] [mm3] | also measured
CC[C@H](C)[C@@H]([C@@H](CC(=O)N1CCC[C@H]1[C@H](OC)[C@@H](C)C(=O)N[C@H](C)[C@@H](O)c1ccccc1)OC)N(C)C(=O)[C@@H](NC(=O)[C@H](C(C)C)N(C)C(=O)OCc1ccc(NC(=O)[C@H](CCCNC(N)=O)NC(=O)[C@@H](NC(=O)CCCc2cn(CCCNC(=O)[C@H](CCCCNC(=O)CCC(=O)O[C@H]3CC[C@@]4(C)C(=CC[C@@H]5[C@@H]4CC[C@]4(C)C(c6cccnc6)=CC[C@@H]54)C3)NC(=O)[C@H](Cc3ccc(O)cc3)NC(=O)[C@H](Cc3ccccc3)NC(=O)CCC(=O)NCCCCCC(=O)N(CCCC[C@H](NC(=O)N[C@@H](CCC(=O)O)C(=O)O)C(=O)O)Cc3cccc(Cl)c3)nn2)C(C)C)cc1)C(C)C [13a] ({GluureaLys(ε-3-ClBenzyl)-Ahx-Suc}-FYK(X4)[X2]V[Cit][PABC][NMeV]V[Dil][Dolaproine]-X1) | 22.3 ± 1.3 | 22.5 ± 1.4 | 22.2 ± 1.4 | 22.2 ± 1.4 | 22.5 ± 1.3 | 22.7 ± 1.3 | 22.7 ± 1.3 | 24.9 ± 1.2 | 24.7 ± 1.5 | 24.8 ± 1.4 | 25.0 ± 1.4 | 25.1 ± 1.3 | 25.2 ± 1.2 | 25.3 ± 1.2 | 69.6±17.0 | 77.2±9.3 | 81.4±25.8 | 121.7 | 391.6 | 784.0 | Tumor growth inhibition [2, 24]: 62.0%; Tumor growth inhibition [2, 25]: 77.1%; Tumor growth inhibition [2, 26]: 80.4%; Tumor growth inhibition [2, 27]: 80.6%; Tumor growth inhibition [2, 28]: 72.6%; tumor volume V±m [3, 18]: 82.2±5.9 mm3; tumor volume V±m [3, 19]: 127.5 mm3; tumor volume V±m [3, 21]: 292.5 mm3; tumor volume V±m ([3]; 27 day after tumor implantation): 463.1 mm3; tumor volume V±m [3, 22]: 958.0 mm3; tumor volume V±m [3, 23]: 1684.0 mm3; Tumor growth inhibition [3, 24]: 36.2%; Tumor growth inhibition [3, 25]: 40.0%; Tumor growth inhibition [3, 26]: 44.9%; Tumor growth inhibition [3, 27]: 29.5%; Tumor growth inhibition [3, 28]: 38.3%; TGI, did not exceed [3]: ≤ 44.9%
CC[C@H](C)[C@@H]([C@@H](CC(=O)N1CCC[C@H]1[C@H](OC)[C@@H](C)C(=O)N[C@H](C)[C@@H](O)c1ccccc1)OC)N(C)C(=O)[C@@H](NC(=O)[C@H](C(C)C)N(C)C(=O)OCc1ccc(NC(=O)[C@H](CCCNC(N)=O)NC(=O)[C@@H](NC(=O)CCCc2cn(CCCNC(=O)[C@H](Cc3ccc(O)cc3)NC(=O)[C@H](Cc3ccccc3)NC(=O)CCC(=O)NCCCCCC(=O)N(CCCC[C@H](NC(=O)N[C@@H](CCC(=O)O)C(=O)O)C(=O)O)Cc3cccc(Cl)c3)nn2)C(C)C)cc1)C(C)C [I, reference compound] ({GluureaLys(ε-3-ClBenzyl)-Ahx-Suc}-FY[X2]V[Cit][PABC][NMeV]V[Dil][Dolaproine]-X1) | 23.4 ± 0.8 | 23.9 ± 1.2 | 23.5 ± 1.7 | 23.4 ± 1.5 | 23.2 ± 1.4 | 23.2 ± 1.6 | 23.4 ± 1.5 | 22.4 ± 2.1 | 22.8 ± 1.8 | 22.4 ± 1.6 | 22.8 ± 1.4 | 23.0 ± 1.3 | 23.2 ± 1.4 | 23.1 ± 1.3 | 78.3±16.3 | 85.4±25.5 | 92.6±34.8 | 147.7 | 419.5 | 824.4 | Tumor growth inhibition [2, 24]: 77.4%; Tumor growth inhibition [2, 27]: 80.1%; Tumor growth inhibition [2, 28]: 71.0%; tumor volume V±m [3, 18]: 80.3±4.5 mm3; tumor volume V±m [3, 19]: 92.6±14.8 mm3; tumor volume V±m [3, 20]: 128.9 mm3; tumor volume V±m [3, 22]: 1059.1 mm3; tumor volume V±m [3, 23]: 1855.5 mm3; Tumor growth inhibition [3, 27]: 37.2%; Tumor growth inhibition [3, 28]: 21.1%; TGI, did not exceed [3]: ≤ 37.7%
